# Results as given in patent US7816358B2, “Pharmaceutical formulations comprising N,N′-disubstituted piperazine compounds” (Gruenenthal GmbH, priority 2001, dated 2010).
# Test system: gabapentin binding site
# Assay: Gabapentin binding assay: displacement of [3H]-gabapentin from its binding site
# Settings: compound 10 μM in the test batch; [3H]-gabapentin 10 nM; homogenate 0.6 mg/ml protein; 40 minutes at room temperature
# Experimental: In the binding assay, the binding and affinities of the compounds according to the invention to the binding site—which is also hitherto still unknown in science—of gabapentin is investigated. The affinity of the compounds was measured via the displacement of gabapentin from its binding site.
# The procedure for the measurement was as follows: Homogenate aliquots were thawed and diluted 20-fold with buffer 1, resuspended and then centrifuged at 110,000×g for 20 minutes. The pellet was resuspended with buffer 2 (10 mM HEPES, 0.05% NaN3, 1 tablet of Complete (Roche Diagnostics) per 100 ml, 0.004% Structol, pH 7.4) and adjusted to a protein concentration of 0.6 mg/ml. 225 μl of homogenate, 20 μl of [^3H]-gabapentin (76 Ci/mmol) in buffer 2, corresponding to a concentration of 10 nM in the test batch, and 5 μl of a compound according to the invention (dissolved in 25% DMSO in water) with a concentration of 10 μM in the test batch were incubated on a shaking machine for 40 minutes at room temperature in 96-well microtiter plates (polypropylene, Costar) and the incubated mixture was then filtered with suction on 96-well Unifilter plates with GF/B filters (Whatman) using a harvester (Robotic Harvester 9600, Brandel). The filter plates were preswollen for 40 minutes in buffer 3 (50 mM Tris, 0.5% PEI, pH 7.4) before the filtering step. The filter plates were washed three times with wash buffer (0.1 M NaCl with 0.05 NaN3) after the filtering step in order to remove non-bound radioligand, and then dried in a drying cabinet at 55° C. After a cooling phase of 15 minutes, 35 μl of scintillator (Ultima Gold MV, Packard) were added per well and the radioactivity on the filters was then determined in a β-counter (Trilux Microbeta, Wallac).
row,SMILES,Gabapentin [%] inhibition [%]
1,"CN1CCN(CC2CCCCCC2(O)Cc2ccc(Cl)cc2Cl)CC1 (stereo not drawn) [1-(2,4-Dichloro-benzyl)-2-(4-methyl-piperazin-1-ylmethyl)-cycloheptanol]",48
2,"CN1CCN(CC2CCCCCCC2(O)Cc2ccc(Cl)cc2Cl)CC1 (stereo not drawn) [1-(2,4-Dichloro-benzyl)-2-(4-methyl-piperazin-1-ylmethyl)-cyclooctanol]",48
3,CN1CCN(CC2CCCCCCC2(O)Cc2c(F)cccc2Cl)CC1 (stereo not drawn) [1-(2-Chloro-6-fluoro-benzyl)-2-(4-methyl-piperazin-1-ylmethyl)-cyclooctanol],60
4,CN1CCN(CC2CCCCCC2(O)Cc2c(F)cccc2Cl)CC1 (stereo not drawn) [1-(2-Chloro-6-fluoro-benzyl)-2-(4-methyl-piperzazin-1-ylmethyl)-cycloheptanol],82
5,CN1CCN(CC2CCCCCC2(O)Cc2ccccc2Cl)CC1 (stereo not drawn) [1-(2-Chloro-benzyl)-2-(4-methyl-piperazin-1-ylmethyl)-cycloheptanol],74
6,CN1CCN(CC2CCCCCCC2(O)Cc2ccccc2Cl)CC1 (stereo not drawn) [1-(2-Chloro-benzyl)-2-(4-methyl-piperazin-1-ylmethyl)-cyclooctanol],61
7,CN1CCN(CC2CCCCCCCCCCC2(O)Cc2cccc(F)c2)CC1 (stereo not drawn) [1-(3-Fluoro-benzyl)-2-(4-methyl-piperazin-1-ylmeethyl)-cyclododecanol],45
8,CN1CCN(CC2CCCCCC2(O)Cc2cccc(F)c2)CC1 (stereo not drawn) [1-(3-Fluoro-benzyl)-2-(4-methyl-piperazin-1-ylmethyl)-cycloheptanol],44
9,CN1CCN(CC2CCCCCCC2(O)Cc2cccc(F)c2)CC1 (stereo not drawn) [1-(3-Fluoro-benzyl)-2-(4-methyl-piperazin-1-ylmethyl)-cyclooctanol],42
10,CN1CCN(CC2CCCCCCC2(O)Cc2ccc(F)cc2)CC1 (stereo not drawn) [1-(4-Fluoro-benzyl)-2-(4-methyl-piperazin-1-ylmethyl)-cyclooctanol],39
11,CN1CCN(CC2CCCCCCCCCCC2(O)Cc2ccccc2)CC1 (stereo not drawn) [1-Benzyl-2-(4-methyl-piperazin-1-ylmethyl)-cyclododecanol],56
12,C=CC1(O)CCCCCCCCCCC1CN1CCN(C)CC1 (stereo not drawn) [2-(4-Methyl-piperazin-1-ylmethyl)-1-vinyl-cyclododecanol],49
